Measured values as given in PubChem BioAssay (NCI).
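Interpolation was linear, between the two tested concentrations surrounding the appropriate level; five concentrations were tested over 48 hours in 96-well plates. TGI is the concentration that stops growth completely.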 Where a SMILES comes first, the peptide text is derived from it. [ ]: non-standard residue; d: D form. The star is where a group is joined. ξ: configuration not given here. dThr(3ξ) = CC(O)[C@@H](N)C(=O)O; dNMeL = CN[C@H](CC(C)C)C(=O)O; OBn = c1ccc(CO*)cc1; ξLac = CC(O)C(=O)O

Tests used:
Test in all cases: inhibition of tumour cell growth, NCI panel, 48 h
[1] = tested on: M14 melanoma
[2] = tested on: LOX IMVI melanoma
[3] = tested on: OVCAR-4 ovarian
[4] = tested on: TK-10 renal
[5] = tested on: SF-268 CNS
[6] = tested on: UACC-62 melanoma
[7] = tested on: OVCAR-5 ovarian
[8] = tested on: K-562 leukemia
[9] = tested on: SNB-75 CNS
[10] = tested on: MOLT-4 leukemia
[11] = tested on: 786-0 renal
[12] = tested on: KM20L2 colon
[13] = tested on: HL-60(TB) leukemia
[14] = tested on: SF-539 CNS
[15] = tested on: HT29 colon
[16] = tested on: OVCAR-8 ovarian
[17] = tested on: HS 578T breast
[18] = tested on: SR leukemia
[19] = tested on: NCI/ADR-RES ovarian
[20] = tested on: DU-145 prostate

Row | Compound | TGI [1] | TGI [2] | TGI [3] | TGI [4] | TGI [5] | TGI [6] | TGI [7] | TGI [8] | TGI [9] | TGI [10] | TGI [11] | TGI [12] | TGI [13] | TGI [14] | TGI [15] | TGI [16] | TGI [17] | TGI [18] | TGI [19] | TGI [20]
1 | CCCN1CN(C(C(=O)N[C@@H]2C(=O)N3C2SC(C)(C)C3C(=O)O)c2ccccc2)CSC1=S (some centres not stated) | > 100 µM | > 100 µM | > 100 µM | > 100 µM | > 100 µM | > 100 µM | > 100 µM | > 100 µM | > 100 µM | > 100 µM | > 100 µM | > 100 µM | > 100 µM | > 100 µM | > 100 µM | > 100 µM |  |  |  | 
2 | O=C(c1cccc(OCc2ccccc2)c1OCc1ccccc1)N1CCSC1=S | > 100 µM | > 100 µM | > 100 µM | > 100 µM | > 52.8 µM | 42.6 µM | > 100 µM | > 100 µM | 34.2 µM | 38.7 µM | > 100 µM |  | 33.1 µM | > 100 µM | > 100 µM | > 100 µM | > 45.8 µM | 45.2 µM | > 100 µM | > 100 µM
3 | CCOc1ccccc1N=Nc1c(-c2ccccc2)nn(C(=O)CC(=O)Nc2cccc(Cl)c2)c1-c1ccccc1 | > 100 µM | > 100 µM | > 100 µM | > 100 µM | > 100 µM | > 100 µM | > 100 µM | > 100 µM | > 100 µM | > 100 µM | > 100 µM | > 100 µM | > 100 µM | > 100 µM | > 100 µM | > 100 µM |  | > 100 µM |  | 
4 | C[C@]12CCC(=O)C=C1CC[C@@H]1[C@@H]2CC[C@]2(C)C(=O)[C@H](n3ccnc3)C[C@@H]12 | > 100 µM | > 100 µM | > 100 µM | > 100 µM | > 100 µM | > 100 µM | > 100 µM | > 100 µM | > 100 µM | > 100 µM | > 100 µM |  | > 100 µM | > 100 µM | > 100 µM | > 100 µM | > 100 µM | > 100 µM | > 100 µM | > 100 µM
5 | CC(=O)OC(C)[C@@H](NC(=O)[C@@H](CC(C)C)N(C)C(=O)[C@@H]1CCCN1C(=O)C(C)O)C(=O)OCc1ccccc1 (some centres not stated) (H-[ξLac]P[dNMeL][dThr(3ξ)](Ac)-OBn) | > 100 µM | > 100 µM | > 100 µM | > 100 µM | > 100 µM | > 100 µM | > 100 µM | > 100 µM | > 100 µM | > 100 µM | > 100 µM |  | > 100 µM | > 100 µM | > 100 µM | > 100 µM | > 100 µM | > 100 µM | > 100 µM | > 100 µM
6 | O=C(NCc1ccccc1)c1cc2cc(O)c(O)cc2cn1 | 43.1 µM | 66.4 µM | > 100 µM | > 100 µM | 75.1 µM | 44.8 µM | 79.6 µM | > 100 µM | 84.5 µM |  | > 100 µM | 84.6 µM | 48.6 µM | > 100 µM | 70.4 µM | 89.7 µM |  | > 100 µM |  | 
7 | COc1ccc(CNC2=C(NC(C)=O)C(=O)c3ccccc3C2=O)cc1 | > 50 µM | 18.7 µM | 15.1 µM | 18.1 µM | > 50 µM | 33.5 µM |  | 26.4 µM | 49.5 µM | 17.7 µM | > 50 µM | > 50 µM | 7.45 µM | 21.9 µM | > 50 µM | > 50 µM |  | > 50 µM |  | 
8 | COC(=O)[C@@H]1C[C@H]([Se]c2ccccc2)CN1S(=O)(=O)c1ccc(C)cc1 | > 100 µM | > 100 µM | > 100 µM | > 100 µM | > 100 µM | > 100 µM | > 100 µM | > 100 µM | 44.5 µM | > 100 µM | > 100 µM |  | > 100 µM | > 100 µM | > 100 µM | > 100 µM | > 100 µM | > 100 µM | > 100 µM | > 100 µM
9 | Cc1ccc2c(c1)C(=O)C(Cc1ccccc1C(=O)O)C2 (configuration not stated) | > 100 µM | > 100 µM | > 100 µM | > 100 µM | > 100 µM | > 100 µM | > 100 µM | > 100 µM | > 100 µM | > 100 µM | > 100 µM |  | > 100 µM | > 100 µM | > 100 µM | > 100 µM | > 100 µM | > 100 µM | > 100 µM | > 100 µM
10 | N#Cc1c(-c2ccccc2)c(N=Nc2ccc(F)cc2)c(=O)n2c1[nH]c1ccccc12 | 27.3 µM | > 100 µM | 31.5 µM | 25.8 µM | 39.5 µM | 26.3 µM | 50.5 µM | 17.9 µM | 39.4 µM | 7.78 µM | 14.3 µM |  | 3.68 µM | 32.2 µM | 12 µM | 24 µM | 31.4 µM | 55.8 µM | 20.6 µM | > 100 µM
11 | N#CC1=C(S)N(C2OC(CO)C(O)C(O)C2O)C(c2ccccc2)=CC1c1ccccc1 (configuration not stated) | > 100 µM | 86.6 µM | > 100 µM | > 100 µM | > 100 µM | 62.7 µM | > 100 µM | > 100 µM | > 100 µM | 86.8 µM | > 100 µM |  | > 100 µM | > 100 µM | > 100 µM | > 100 µM | > 100 µM | > 100 µM | > 100 µM | > 100 µM
12 | CCOC(=O)C(Cc1c2ccccc2cc2ccccc12)(NC(C)=O)C(=O)OCC | > 100 µM | > 100 µM | > 100 µM | > 100 µM | > 100 µM | > 80.9 µM | > 100 µM | > 100 µM | > 80.6 µM | > 90.1 µM | > 100 µM |  | > 100 µM | > 100 µM | > 100 µM | > 100 µM | > 100 µM | > 100 µM | > 100 µM | > 100 µM
